We go through two substances from patent US20110177054A1, “USE OF ENDO-LYSOSOMAL SYSTEM AND SECRETED VESICLES (EXOSOME-LIKE) IN TREATMENTS AND DIAGNOSTICS BASED ON SMALL RNA AND EXPERIMENTAL STUDY OF SMALL RNA” (priority 2008, published 2011).

For the data set, the system named is multivesicular body (MVB). Put plainly: Confocal microscopy of N-Rh-PE labelled MVB and GFP-GW182 after siRNA transfection. It is filed as cell-based. The procedure: FIG. 4: Members of the ESCRT complex affect miRNA activity but not localization of GW182 to the MVB. (A) Confocal micrography showing cells loaded with N-Rh-PE to label the MVB one day after transfection with GFP-GW182 and 50 nM of siRNA targeting Alix or vps36. […] Knockdown of some members of the ESCRT complex inhibits activity of Let-7a. Analysis of the levels of Let-7a vs mutated site expression for the control, tsg101, vps36, hrs, alix, and GW 182. Cells were transfected with plasmids expressing Renilla luciferase attached to an intact or mutated Let-7a target site, 50 nM siRNA, and pGL3 expressing firefly luciferase (n=6). (C) Knockdown of some members of the ESCRT complex inhibits activity of miR-206. Analysis of the percentage of expression of miR-206 target for the control, tsg101, vps36, hrs, alix, and GW 182. Cells were transfected with 50 nM siRNA, plasmids expressing miR-206 or miR-K12-4 and the estrogen receptor 3′UTR inserted in the dual luciferase plasmid psiCHECK™ (Promega) (n=4). Thirty hours later luciferase activity as assessed.
FIG. 12: Knockdown of ESCRT complex components compromises miRNA activities. (a) GW182, but not Dcp1a associates with ubiquitinated proteins. Immunoprecipitating antibody is shown above lane, blotting antibody is inscribed in white (b) Knockdown of ESCRT complex components causes accumulation of GW182. (c) Co-localization of GFP-GW182 and N-Rh-PE was examined 36 h after siRNA transfection. […] U6 RNA was used as a loading control. (e) Knockdown of some members of the ESCRT complex inhibits activity of miR-206. (Anova, n=3, p=0.015, F=6.577, a=0.05). Lack of detectable miR206 expression in monocytic cells and accumulation of miR206 upon monocyte transfection were confirmed by northern blot.
Cells were concentrated by centrifugation (90 g, 5 min), resuspended in culture media, and analyzed immediately. Images were captured with a Zeiss LSM 510 confocal microscope with 488 nm and 561 nm lasers using the smallest planes (0.4-1.2 μm) allowed by the brightness of the fluorophores used and a 63× objective lens. Filters used were 500-530 nm (GFP) and 550-650 (N-Rhodamine-PhosphatidylEthanolamine, […] (RFP)). Images were analyzed using ImageJ.
Procedures were performed as described (Vidal, M., Mangeat, P., & Hoekstra, D. Aggregation reroutes molecules from a recycling to a vesicle-mediated secretion pathway during reticulocyte maturation. J. Cell Sci. 110, 1867-1877 (1997)). Essentially, cells were washed twice in PBS and 3 μM N-Rh-PE (Avanti Polar Lipids, Alabaster, Ala., USA) in ethanol was injected with a Hamilton syringe into the cell suspension. After vortexing cells were incubated for 1.5 h at 4° C. Cells were washed twice, resuspended in culture media and incubated at 37° C. with 5% CO2 for 4 h before confocal analysis.
Images were captured with a Zeiss LSM 510 confocal microscope with 488 nm and 561 nm lasers and a 63× objective lens. Filters used were 500-530 nm (GFP) and 550-650 nm (N-Rh-PE, RFP).
The Mono-Mac6 cell line (DSMZ, Braunschweig, Germany ACC-124) was cultured in RPMI 1640 containing 10% FBS, non-essential amino acids (Invitrogen, Paris, France), and OPI media supplement (Sigma-Aldrich). Alternatively, Mono-Mac6 were cultured in X-Vivo-15 serum-free media (Lonza, Levallois, France). Hela cells were grown in DMEM supplemented with 5% FBS. Cells were loaded with 3 μM N-Rh-PE (Avanti Polar Lipids, Alabaster, Ala., USA) as described (Vidal, M., Mangeat, P. & Hoekstra, D. Aggregation reroutes molecules from a recycling to a vesicle-mediated secretion pathway during reticulocyte maturation. J Cell Sci 110 (Pt 16), 1867-77 (1997)).

The mark [1] stands for this setting: Example 2, 36 h after siRNA transfection.

Turning to “Alix siRNA: Qiagen siRNA targeting Alix: AAGAGCTGTGTGTTGTTCAAT (SEQ ID NO. 5), GAGGTACTTTATACTAACATA (SEQ ID NO. 6) (two separate commercial siRNAs, chemistry not given here)”, the “co-localization of GW182 with MVB” value (Example 1, 50 nM siRNA, GFP-GW182 and N-Rh-PE) is “not grossly disrupted”. Also, the “MVB size / perinuclear distribution” value is listed as “increase in the perinuclear distribution of MVB” (Example 1, 50 nM siRNA, in some cells) and “enhanced perinuclear MVB distribution” under setting [1]. The “GFP-GW182 localization to MVB” value under setting [1] is on record as “remained unaltered”.

With “Hrs siRNA: Qiagen siRNA targeting Hrs: CCGGAACGAGCCCAAGTACAA (SEQ ID NO. 1), GCACGTCTTTCCAGAATTCAA (SEQ ID NO. 2) (two separate commercial siRNAs, chemistry not given here)”, under setting [1], the “GFP-GW182 localization to MVB” value was “remained unaltered”.
